Data from patent US10392368B2, “Pyrazolo and triazolo bicyclic compounds as JAK kinase inhibitors” (THERAVANCE BIOPHARMA R&D IP, LLC, priority 2017, dated 2019).

Legend:
JAK3 = target: T1, JAK3 (Homo sapiens, UniProt P52333); assay: Biochemical JAK3 kinase assay (LanthaScreen); design: GST; purchased Life Technologies; settings: for JAK3 (pKi)-JAK1 (pKi): selectivity JAK3 over JAK1, difference of pKi; for Ki: read-out: JAK 3 (pKi) (converted)
T1 sequence (P52333 1-1124): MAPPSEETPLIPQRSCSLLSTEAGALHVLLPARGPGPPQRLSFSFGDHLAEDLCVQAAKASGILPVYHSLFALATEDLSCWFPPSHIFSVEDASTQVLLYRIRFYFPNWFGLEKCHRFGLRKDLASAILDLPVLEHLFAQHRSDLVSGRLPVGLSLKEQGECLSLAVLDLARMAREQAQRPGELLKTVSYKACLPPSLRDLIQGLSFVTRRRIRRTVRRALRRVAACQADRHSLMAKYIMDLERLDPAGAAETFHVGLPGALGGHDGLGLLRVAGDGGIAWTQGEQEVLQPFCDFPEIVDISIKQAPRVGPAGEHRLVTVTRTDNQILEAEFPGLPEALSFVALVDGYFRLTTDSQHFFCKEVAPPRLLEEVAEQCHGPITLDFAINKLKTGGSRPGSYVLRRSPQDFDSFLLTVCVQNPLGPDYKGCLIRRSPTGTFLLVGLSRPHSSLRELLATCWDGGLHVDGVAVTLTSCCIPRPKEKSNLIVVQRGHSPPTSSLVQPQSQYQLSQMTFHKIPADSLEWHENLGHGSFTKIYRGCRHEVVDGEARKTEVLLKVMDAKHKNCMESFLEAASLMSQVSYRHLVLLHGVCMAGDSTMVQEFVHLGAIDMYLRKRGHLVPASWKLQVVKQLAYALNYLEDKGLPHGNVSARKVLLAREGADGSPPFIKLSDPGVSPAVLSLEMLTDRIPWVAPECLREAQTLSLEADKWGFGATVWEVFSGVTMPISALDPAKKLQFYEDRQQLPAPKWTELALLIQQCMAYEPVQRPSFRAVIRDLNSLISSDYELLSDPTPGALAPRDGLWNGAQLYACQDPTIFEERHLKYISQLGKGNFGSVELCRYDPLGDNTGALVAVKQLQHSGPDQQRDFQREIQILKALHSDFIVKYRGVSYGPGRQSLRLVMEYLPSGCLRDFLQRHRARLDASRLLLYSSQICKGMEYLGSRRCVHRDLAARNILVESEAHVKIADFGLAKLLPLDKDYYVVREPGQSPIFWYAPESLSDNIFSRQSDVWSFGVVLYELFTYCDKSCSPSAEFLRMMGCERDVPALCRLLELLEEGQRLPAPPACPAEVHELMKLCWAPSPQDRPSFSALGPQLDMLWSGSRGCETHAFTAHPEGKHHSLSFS
Method in brief: (§1)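 GST-JAK + GFP-STAT1 peptide + cpd, 1 h preinc RT; ATP start, 1% DMSO, 1 h RT; stop 10 mM EDTA + 2 nM Tb-anti-pSTAT1; 1 h; TR-FRET 520/495. % inhib vs DMSO/background → IC50 (4-PL) → pKi (Cheng-Prusoff).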

[1] = test system: IL-2 stimulated pSTAT5 in Tall-1 T cells; assay: Cellular JAK3 potency assay: inhibition of IL-2 stimulated pSTAT5 in Tall-1 T cells; type: cell-based, human; settings: for Tall-1 (pIC50): IL-2 stimulated pSTAT5, Tall-1 T cells; for IC50: Homo sapiens, TALL-1, IL-2 stimulated pSTAT5, Tall-1 T cells, read-out: Tall-1 (pIC50) (converted)
Method in brief: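 Tall-1 human T cells (45,000/well) in phenol red-free DMEM with 10% FBS were preincubated with compound 1 h at 37 °C, then stimulated with IL-2 (final 300 ng/ml) for 30 min. Lysate pSTAT5 read by AlphaLisa; IC50 from inhibition curves, reported as pIC50 (mean±SD).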

JAK1 = target: T2, JAK1 (Homo sapiens, UniProt P23458); assay: Biochemical JAK1 kinase assay (LanthaScreen); settings: for Ki: read-out: JAK 1 (pKi) (converted)
T2 construct: GST; purchased Life Technologies
T2 sequence (P23458 whole entry): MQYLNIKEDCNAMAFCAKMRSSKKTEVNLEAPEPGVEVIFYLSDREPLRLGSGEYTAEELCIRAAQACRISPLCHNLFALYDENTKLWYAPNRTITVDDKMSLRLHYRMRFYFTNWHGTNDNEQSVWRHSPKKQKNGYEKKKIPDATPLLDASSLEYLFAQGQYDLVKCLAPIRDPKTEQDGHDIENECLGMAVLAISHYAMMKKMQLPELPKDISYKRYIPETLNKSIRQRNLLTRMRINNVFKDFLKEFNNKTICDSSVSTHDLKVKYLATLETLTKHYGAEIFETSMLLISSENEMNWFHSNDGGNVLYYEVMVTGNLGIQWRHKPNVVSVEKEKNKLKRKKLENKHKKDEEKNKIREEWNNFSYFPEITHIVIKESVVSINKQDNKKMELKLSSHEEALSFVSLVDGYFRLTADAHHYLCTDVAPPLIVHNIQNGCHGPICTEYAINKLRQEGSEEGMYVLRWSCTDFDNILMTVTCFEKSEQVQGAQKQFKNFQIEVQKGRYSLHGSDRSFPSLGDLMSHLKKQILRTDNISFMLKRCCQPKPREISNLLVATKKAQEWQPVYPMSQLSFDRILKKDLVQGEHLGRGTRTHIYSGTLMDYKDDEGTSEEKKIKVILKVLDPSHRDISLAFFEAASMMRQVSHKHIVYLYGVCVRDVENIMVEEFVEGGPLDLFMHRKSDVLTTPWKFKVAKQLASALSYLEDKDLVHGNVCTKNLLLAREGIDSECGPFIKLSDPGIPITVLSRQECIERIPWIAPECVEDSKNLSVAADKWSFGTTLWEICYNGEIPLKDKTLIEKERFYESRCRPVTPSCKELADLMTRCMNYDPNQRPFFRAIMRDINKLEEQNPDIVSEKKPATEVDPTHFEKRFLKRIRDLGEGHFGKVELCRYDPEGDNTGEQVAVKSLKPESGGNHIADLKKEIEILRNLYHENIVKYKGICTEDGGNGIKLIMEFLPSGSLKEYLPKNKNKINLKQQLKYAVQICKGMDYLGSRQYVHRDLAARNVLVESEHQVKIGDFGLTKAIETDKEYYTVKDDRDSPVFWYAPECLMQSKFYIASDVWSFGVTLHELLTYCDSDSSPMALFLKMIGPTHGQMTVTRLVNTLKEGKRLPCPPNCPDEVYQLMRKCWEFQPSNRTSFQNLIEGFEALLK
Method in brief: as §1

Compound | JAK 3 (pKi) (JAK3) | JAK3 (pKi)-JAK1 (pKi) (JAK3) | Tall-1 (pIC50) [1] | JAK 1 (pKi) (JAK1) | Ki (JAK3) [nM] | IC50 [1] [nM] | Ki (JAK1) [nM]
C=CC(=O)N1CC(Oc2nc(-c3ccc(O)cc3)nc3[nH]ncc23)C1 [Compound 5-20] | B (a pKi value between 9 and 10 (Ki between 1 nM and 0.1 nM)) | A (a value of 3 or above) | C (a pIC50 value between 6 and 6.7 (IC50 between 1 μM and 200 nM)) | E (a pKi value of 7 or below (Ki of 100 nM or above)) |  |  | 
C=CC(=O)N1CC(C)(Oc2cc(-c3ccc(O)c(F)c3)cc3[nH]ncc23)C1 [Compound 5-24] | B (a pKi value between 9 and 10 (Ki between 1 nM and 0.1 nM)) | A (a value of 3 or above) | B (a pIC50 value between 6.7 (included) and 7.5 (IC50 between 200 nM and 32 nM)) | E (a pKi value of 7 or below (Ki of 100 nM or above)) |  |  | 
CN(C)C/C=C/C(=O)N1CC(Oc2cc(-c3ccc(O)cc3)cc3[nH]ncc23)(C(F)(F)F)C1 [Compound 5-25] | B (a pKi value between 9 and 10 (Ki between 1 nM and 0.1 nM)) | A (a value of 3 or above) | A (a pIC50 value≥7.5 (IC50≤32 nM)) | E (a pKi value of 7 or below (Ki of 100 nM or above)) |  |  | 
C=CC(=O)N1CC(Oc2cc(-c3ccc(O)cc3)cc3[nH]ncc23)(C(F)(F)F)C1 [Compound 5-26] | B (a pKi value between 9 and 10 (Ki between 1 nM and 0.1 nM)) | B (a value of 2.3 to 3) | C (a pIC50 value between 6 and 6.7 (IC50 between 1 μM and 200 nM)) | E (a pKi value of 7 or below (Ki of 100 nM or above)) |  |  | 
CN(C)C/C=C/C(=O)N1CCC(Oc2cc(-c3ccc(O)cc3)cc3[nH]ncc23)CC1 [Compound 6-1] |  | B (a value of 2.3 to 3) |  |  | < 0.1 | 31.6 to 200 | 10 to 100
C=CC(=O)N1CCC(C)(Oc2cc(-c3ccc(O)c(Cl)c3)cc3[nH]ncc23)CC1 [Compound 6-5] | B (a pKi value between 9 and 10 (Ki between 1 nM and 0.1 nM)) | A (a value of 3 or above) | A (a pIC50 value≥7.5 (IC50≤32 nM)) | E (a pKi value of 7 or below (Ki of 100 nM or above)) |  |  | 
C=CC(=O)N1CCC(C)(Oc2cc(-c3ccc(O)c(F)c3)cc3[nH]ncc23)CC1 [Compound 6-7] |  | A (a value of 3 or above) |  |  | 0.1 to 1 | < 31.6 | > 100
C=CC(=O)N1CCC(Oc2cc(-c3ccc(O)cc3)cc3[nH]ncc23)C(F)(F)C1 (stereo not drawn) [Compound 6-8] |  | B (a value of 2.3 to 3) |  |  | < 0.1 | < 31.6 | 10 to 100
C=CC(=O)N1CCC(Oc2cc(-c3ccc(O)cc3)nc3[nH]ncc23)CC1 [Compound 6-11] |  | A (a value of 3 or above) |  |  | < 0.1 | 31.6 to 200 | > 100
C=CC(=O)N1CCC(Oc2nc(-c3ccc(O)cc3)nc3[nH]ncc23)CC1 [Compound 6-12] |  | A (a value of 3 or above) |  |  | 0.1 to 1 | 31.6 to 200 | > 100
C=CC(=O)N1CCC(Oc2cc(-c3ccc(O)c(F)c3)cc3[nH]ncc23)CC1 [Compound 6-14] |  | B (a value of 2.3 to 3) |  |  | < 0.1 | < 31.6 | 10 to 100
CN(C)C/C=C/C(=O)N1CCC(Oc2cc(-c3ccc(O)c(Cl)c3)cc3[nH]ncc23)CC1 [Compound 6-19] |  | B (a value of 2.3 to 3) |  |  | 0.1 to 1 | 31.6 to 200 | 10 to 100
C=CC(=O)N1CCC(Oc2nc(-c3ccc(O)c(Cl)c3)nc3[nH]ncc23)CC1 [Compound 6-22] |  | A (a value of 3 or above) |  |  | 0.1 to 1 | 200 to 1000 | > 100
C=CC(=O)N1CCC(Oc2nc(-c3ccc(O)c(F)c3)nc3[nH]ncc23)CC1 [Compound 6-23] |  | A (a value of 3 or above) |  |  | 0.1 to 1 | 200 to 1000 | > 100
CN(C)C/C=C/C(=O)N1CCC(C)(Nc2cc(-c3ccc(O)cc3)cc3[nH]ncc23)CC1 [Compound 7-1] | B (a pKi value between 9 and 10 (Ki between 1 nM and 0.1 nM)) | A (a value of 3 or above) | C (a pIC50 value between 6 and 6.7 (IC50 between 1 μM and 200 nM)) | E (a pKi value of 7 or below (Ki of 100 nM or above)) |  |  | 
CN(C)C/C=C/C(=O)N1CCC(Nc2cc(-c3ccc(O)cc3)cc3[nH]ncc23)C(F)(F)C1 (stereo not drawn) [Compound 7-5] |  | C (a value of 1.8 to 2.3) |  |  | 0.1 to 1 | 31.6 to 200 | 10 to 100
C=CC(=O)N1CCC(Nc2cc(-c3ccc(O)cc3)cc3[nH]ncc23)C(F)(F)C1 (stereo not drawn) [Compound 7-6] | A (a pKi value≥10 (Ki≤0.1 nM)) | B (a value of 2.3 to 3) | A (a pIC50 value≥7.5 (IC50≤32 nM)) | D (a pKi value between 7 and 8 (Ki between 100 nM and 10 nM)) |  |  | 
C=CC(=O)N1CCCC(Oc2cc(-c3ccc(O)cc3)nc3[nH]ncc23)C1 (stereo not drawn) [Compound 8-6] | B (a pKi value between 9 and 10 (Ki between 1 nM and 0.1 nM)) | A (a value of 3 or above) | B (a pIC50 value between 6.7 (included) and 7.5 (IC50 between 200 nM and 32 nM)) | E (a pKi value of 7 or below (Ki of 100 nM or above)) |  |  | 
C=CC(=O)N1CCCC(Oc2cc(-c3ccc(O)c(F)c3)nc3[nH]ncc23)C1 (stereo not drawn) [Compound 8-8] | A (a pKi value≥10 (Ki≤0.1 nM)) | A (a value of 3 or above) | B (a pIC50 value between 6.7 (included) and 7.5 (IC50 between 200 nM and 32 nM)) | E (a pKi value of 7 or below (Ki of 100 nM or above)) |  |  | 
CN(C)CC=CC(=O)N1CCCC(Oc2nc(-c3ccc(O)c(F)c3)cc3[nH]ncc23)C1 (stereo not drawn) [Compound 8-9] | B (a pKi value between 9 and 10 (Ki between 1 nM and 0.1 nM)) | B (a value of 2.3 to 3) | C (a pIC50 value between 6 and 6.7 (IC50 between 1 μM and 200 nM)) | E (a pKi value of 7 or below (Ki of 100 nM or above)) |  |  | 
C=CC(=O)N1CCC[C@H](Oc2nc(-c3ccc(O)c(Cl)c3)cc3[nH]ncc23)C1 [Compound 8-10] | A (a pKi value≥10 (Ki≤0.1 nM)) | A (a value of 3 or above) | A (a pIC50 value≥7.5 (IC50≤32 nM)) | D (a pKi value between 7 and 8 (Ki between 100 nM and 10 nM)) |  |  | 
C=CC(=O)N1CCC[C@H](Oc2nc(-c3ccc(O)c(Cl)c3)nc3[nH]ncc23)C1 [Compound 8-12] | B (a pKi value between 9 and 10 (Ki between 1 nM and 0.1 nM)) | A (a value of 3 or above) | C (a pIC50 value between 6 and 6.7 (IC50 between 1 μM and 200 nM)) | E (a pKi value of 7 or below (Ki of 100 nM or above)) |  |  | 
C=CC(=O)N1CCC[C@H](Oc2nc(-c3ccc(O)c(F)c3)nc3[nH]ncc23)C1 [Compound 8-13] | B (a pKi value between 9 and 10 (Ki between 1 nM and 0.1 nM)) | A (a value of 3 or above) | C (a pIC50 value between 6 and 6.7 (IC50 between 1 μM and 200 nM)) | E (a pKi value of 7 or below (Ki of 100 nM or above)) |  |  | 
CN(C)CC=CC(=O)N1C2CCC1CC(Oc1cc(-c3ccc(O)c(Cl)c3)cc3[nH]ncc13)C2 (stereo not drawn) [Compound 9-3] | B (a pKi value between 9 and 10 (Ki between 1 nM and 0.1 nM)) | C (a value of 1.8 to 2.3) | C (a pIC50 value between 6 and 6.7 (IC50 between 1 μM and 200 nM)) | E (a pKi value of 7 or below (Ki of 100 nM or above)) |  |  | 
